Data set [1] concerns E. coli infected rats (experimental abscess). Put plainly: In vivo biodistribution in rats bearing experimental abscesses, direct intravenous injection. Also on record: species or system male Wistar rats. The settings on record: 48 hrs.
Data set [2] has the same test system. The description is as above. More on the design: species or system male Wistar rats. As to conditions: for Relative conc. In infected area / Infected/normal / Infected/blood: directly injected i.v.; for Relative conc. In infected area: % injected dose in a % body weight; for Infected/normal: ratio of % id/g infected area to contralateral thigh; for Infected/blood: ratio of %/g infected area to blood. The procedure: (§1) The model: into the right gracilis (thigh) muscle of male Wistar rats (250-325 g) were injected 1 ml/kg of an E. coli suspension containing >> 5×10^8/ml organisms.
(§2) Validation: the model was validated for use in the development of diagnostic imaging agents of infection/inflammation by the intravenous injection of ^99mTc-HMPAO ex-vivo labelled human wbc or ^67Ga-citrate when the abscesses were 24 hours old. Animals were dissected between 4 and 24 hours after injection. ^99mTc-labelled red blood cells were used as a negative control.
The animals were sacrificed at either 4 or 24 hours post injection and relevant tissues dissected.

A short description of data set [3]: In vivo stability of iodinated HLE inhibitors (thyroid uptake). As to conditions: i.v. injection. More on the design: species or system male Wistar rats. The procedure:
The in vivo stability of radioiodinated HLE inhibitors was monitored by determination of the percentage uptake in the thyroid as a function of time after administration. Thus radioiodinated compounds and ^123I free iodide were injected into male Wistar rats. The percentage of injected dose distributing to the thyroid was calculated by dissection at 4 and 24 hours post injection and counting.

The test system of data set [4] is human whole blood (granulocytes, monocytes + lymphocytes, erythrocytes). Description: In vitro cell uptake in human whole blood. As to conditions: 37° C. for 1 hour, radiolabelled compound. It counts as cell-based. The method, then: The radioactive compound was added to 1 ml whole blood anticoagulated with ACD and incubated at 37° C. for 1 hour. The blood was diluted with HBSS and the cellular component separated by centrifugation. Distribution of activity within the cellular pellet was assessed by separation of cell fractions on Ficoll-Hypaque gradients as above.

The target of data set [5] is T1, HLE (human leucocyte elastase) (Homo sapiens, UniProt P08246).
T1 sequence (P08246 30-267): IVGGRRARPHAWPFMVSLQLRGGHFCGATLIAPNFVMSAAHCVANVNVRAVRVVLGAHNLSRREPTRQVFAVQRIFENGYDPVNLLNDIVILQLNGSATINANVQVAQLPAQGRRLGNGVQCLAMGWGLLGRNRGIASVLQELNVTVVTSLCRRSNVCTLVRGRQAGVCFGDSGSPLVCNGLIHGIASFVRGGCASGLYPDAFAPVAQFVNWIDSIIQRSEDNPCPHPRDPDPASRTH
Put plainly: Measurement of HLE inhibition potency (kinact/Ki). It is filed as biochemical. The method, then:
Inhibitor potency against HLE is described by the parameter kinact/Ki as previously reported [Knight et al., Biochem., 8160-8170, (1992)]. Lyophilised enzyme was reconstituted with TrisHCl buffer, 100 mM, 0.5M NaCl at 0.05 units/ml (approximately nanomolar concentration) in a final reaction volume of 1 ml to which was added methoxysucc-ala-ala-pro-val-pNA substrate (1 mM) and the elastase inhibitor dissolved in DMSO. The reaction was monitored by detecting the change of absorbance at 410 nm (hydrolysis of the substrate releasing p-nitroaniline) over a timescale of 25 minutes. Values of kinact/Ki were estimated according to the Knight et al method.

For data set [6], the system named is E. coli infected rats (experimental abscess). Description: In vivo biodistribution of ex vivo labelled human leucocytes in E. coli infected rats. More on the design: species or system male Wistar rats. The settings on record: ex vivo labelled human leucocytes injected i.v. The procedure:
as §1, §2
Screening of Ex vivo labelled human leucocytes in E. coli infected rats: A mixed population of human leucocytes was incubated with elastase inhibitor for 30 minutes at 37° C. The cells were then spun down and resuspended in a known volume of rat plasma for intravenous injection into rats bearing a 24 hour old abscess. Animals were dissected at 4 and 24 hours post injection.

In data set [7] the test system is isolated human white cells (granulocytes; monocytes + lymphocytes). Description: In vitro cell uptake in isolated human white cells. It counts as cell-based. The method, then:
Fresh blood (30-120 ml) was anticoagulated with 1.5% ACD solution and sedimented by addition of 2 ml Hespan per 10 ml blood for 90 minutes at room temperature. The leucocyte rich platelet rich plasma supernatant was removed and centrifuged at 150 g for 5 minutes, yielding a leucocyte rich pellet and platelet rich plasma (PRP). The PRP was centrifuged at 4000 g to pellet the platelets leaving a cell free plasma (CFP). The leucocyte pellet was resuspended in a 50:50 mixture of HBSS and CFP and incubated with the radioactive compound for 30 minutes at 37° C. Free radioactive material was then removed from the cells by addition of an excess of HBSS:CFP and centrifugation of the leucocytes at 150 g for 7 minutes. The supernatant and cell pellet were taken for radioactive counting for calculation of percentage cell uptake. The distribution of radioactivity within the cell pellet was assessed by separation of the cell types using Percoll density gradient centrifugation (38%, 55% and 73% Percoll in HBSS step gradients). The residual plasma and free activity was recovered from the top of the gradient, the mononuclear cells (lymphocytes and monocytes) from the interface between 38% and 55%, and the granulocytes were recovered from the interface between 55% and 73% Percoll.

For data set [8], the system named is mixed human red/white cells (granulocytes, monocytes + lymphocytes, erythrocytes). Description: In vitro cell uptake in mixed human red/white cells. As to conditions: radiolabelled compound. It counts as cell-based. The method, then: The radioactive compound was also incubated with an isolated leucocyte preparation to which an erythrocyte fraction had been added back. The packed erythrocytes obtained after blood sedimentation were washed twice with HBSS and then resuspended in their original blood volume with HBSS. Leucocytes obtained from 30 ml blood were resuspended in 0.5 ml erythrocyte suspension and 0.5 ml CFP. The cell suspension was then incubated with compound as above. Analysis of the distribution of activity in the cell pellet in the presence of red blood cells was carried out using Ficoll-Hypaque discontinuous density gradients (densities 1.04, 1.077 and 1.119 g/ml Histopaque steps).

Where [9] appears, read: isolated human white cells, 30 minutes at 37° C., radiolabelled compound.

Read-outs that look alike come from different tables or passages of the source.

In the case of `O=C([O-])CC(O)(CC(=O)[O-])C(=O)[O-].[67Ga+3]` [^67Ga-citrate, ^67Ga citrate, reference compound], in data set [1], the Infected/blood amounted to 9.7, the Infected/normal turned out to be 3.9 and the “Relative conc. In infected area” value amounted to 1.1. In data set [2] (24 hrs post injection), the “Relative conc. In infected area” value is listed as 0.9, the Infected/normal is given as 2.2 and the Infected/blood is listed as 3.9.

For the molecule `CCC1(CC)C(=O)N(C(=O)NCc2ccc(I)cc2)C1Oc1ccc(C(=O)N2CCN(C)CC2)cc1` (racemic) [Compound 4, 4-[4-[[(4-Methyl)piperazin-1-yl]carbonyl]phenoxy]-1-[(4-iodo)benzylaminocarbonyl]-3,3-diethyl-2-azetidinone], the “% dose in Thyroid” value in data set [3] (4 hours) worked out at 0.1 % dose. Also, the “% dose in Thyroid” value in data set [3] (24 hours) is on record as 0.9 % dose. For the same molecule, in data set [4], the “% uptake in Eryth. (erythrocytes), WHOLE BLOOD” value is 6.5%; the “% uptake in Gran. (granulocytes), WHOLE BLOOD” value turned out to be 5.0%; the “% uptake in Mon. (monocytes + lymphocytes), WHOLE BLOOD” value amounted to 3.9%. Besides, the kinact/KI in data set [5] (as listed in Table 24 beside the radiolabelled compounds, read-out: kinact/Ki (human elastase)) turned out to be 32000 M⁻¹ s⁻¹. Moreover, the kinact/KI in data set [5] (measured for non-radioactive iodine-labelled compounds and unlabelled chelate conjugates, read-out: Potency (M/sec), kinact/Ki) came to 32000 M⁻¹ s⁻¹. In data set [6] (4 hrs post injection), this molecule yielded an Infected/blood of 0.61 and an Infected/normal of 1.5. For the same molecule, in data set [6] (24 hrs post injection), the Infected/blood was 0.75 and the Infected/normal is 1.9. Besides, in data set [2] (^123I-labelled, rat model of inflammation/infection), the “uptake in the infected region compared with the ^99mTc-rbc control” value is listed as “significantly better uptake in the infected region”. Further, in data set [2] (4 hrs post injection), the “Relative conc. In infected area” value is on record as 0.51, the Infected/normal was 1.3 and the Infected/blood is given as 0.62. Further, in data set [2] (24 hrs post injection), the “Relative conc. In infected area” value is 0.12, the Infected/normal was 1.3 and the Infected/blood is reported as 0.51. In data set [7] (approximately equivalent numbers of monocytes/lymphocytes and granulocytes present), the “selectivity for granulocytes over a mixture of monocytes/lymphocytes” value is listed as “some degree of selectivity for granulocytes”. In data set [7] (setting [9]), the “% uptake in Gran. (granulocytes), WHITE CELLS” value stood at 25.7% and the “% uptake in Mon. (monocytes + lymphocytes), WHITE CELLS” value is reported as 2.0%. Moreover, in data set [8], the “% uptake in Eryth. (erythrocytes), WHITE AND RED CELLS” value worked out at 14.2%; the “% uptake in Gran. (granulocytes), WHITE AND RED CELLS” value turned out to be 14.4%; the “% uptake in Mon. (monocytes + lymphocytes), WHITE AND RED CELLS” value was 3.4%.

The values above are taken from patent US6375926B1, “Labelled elastase inhibitors” (Amersham International PLC, priority 1996, dated 2002).
